Reference: ChEMBL document CHEMBL4680137, “Synthesis and biological evaluation of some novel 1,2,3-triazole hybrids of myrrhanone B isolated from Commiphora mukul gum resin: Identification of potent antiproliferative leads active against prostate cancer cells (PC-3)” (Eur J Med Chem, 2020)
pIC50: −log10 of the molar value.

What was measured:
DU-145 = experiment: Antiproliferative activity against human DU-145 cells assessed as reduction in cell viability after 48 hrs by MTT assay; type: functional, cell-based; conditions: DU-145, 48 h
A549 = experiment: Antiproliferative activity against human A549 cells assessed as reduction in cell viability after 48 hrs by MTT assay; type: functional, cell-based; conditions: A549, 48 h
MDA-MB-231 = experiment: Antiproliferative activity against human MDA-MB-231 cells assessed as reduction in cell viability after 48 hrs by MTT assay; type: functional, cell-based; conditions: MDA-MB-231, 48 h
L132 = experiment: Cytotoxicity against human L132 cells assessed as reduction in cell viability after 48 hrs by MTT assay; type: cell-based; conditions: L132, 48 h
PC-3 = experiment: Antiproliferative activity against human PC3 cells assessed as reduction in cell viability after 48 hrs by MTT assay; type: functional, cell-based; conditions: PC-3, 48 h
[1] = Inhibition of LPS-induced IL-1beta expression in human U-937 cells preincubated for 1 hr followed by LPS addition and measured after 24 hrs by ELISA; type: functional, cell-based
[2] = Inhibition of LPS-induced TNF-alpha expression in human U-937 cells preincubated for 1 hr followed by LPS addition and measured after 24 hrs by ELISA; type: functional, cell-based
[3] = Inhibition of Saccharomyces cerevisiae alpha-glucosidase using p-nitophenyl alpha […]D-glucoside incubated for 45 mins
U-87 MG = experiment: Antiproliferative activity against human U87 cells assessed as reduction in cell viability after 48 hrs by MTT assay; type: functional, cell-based, U-87MG ATCC
SiHa = experiment: Antiproliferative activity against human SiHa cells assessed as reduction in cell viability after 48 hrs by MTT assay; type: functional, cell-based

Structure (SMILES) | pIC50 (DU-145) | pIC50 (A549) | pIC50 (MDA-MB-231) | pIC50 (L132) | pIC50 (PC-3) | pIC50 [1] | pIC50 [2] | pIC50 [3] | pIC50 (U-87 MG) | pIC50 (SiHa)
C/C(=C\CC/C(C)=C/CC[C@@H]1[C@@]2(C)CCC(=O)C(C)(C)[C@H]2CC[C@@]1(C)O)CC/C=C(\C)C(=O)OCc1cn(-c2ccccc2C)nn1 | < 3.82 | < 3.82 | < 3.82 | < 3.82 | – | – | – | – | – | –
COc1ccc(-n2cc(COC(=O)/C(C)=C/CC/C(C)=C/CC/C(C)=C/CC[C@@H]3[C@@]4(C)CCC(=O)C(C)(C)[C@H]4CC[C@@]3(C)O)nn2)cc1 | 3.87 | < 3.82 | < 3.82 | < 3.82 | – | – | – | – | – | –
C/C(=C\CC/C(C)=C/CC[C@@H]1[C@@]2(C)CCC(=O)C(C)(C)[C@H]2CC[C@@]1(C)O)CC/C=C(\C)C(=O)OCc1cn(-c2ccc(F)c(Cl)c2)nn1 | < 3.82 | < 3.82 | – | < 3.82 | 4.64 | 4.80 | 5.11 | 5.00 | – | –
COc1cccc(-n2cc(COC(=O)/C(C)=C/CC/C(C)=C/CC/C(C)=C/CC[C@@H]3[C@@]4(C)CCC(=O)C(C)(C)[C@H]4CC[C@@]3(C)O)nn2)c1 | < 3.82 | < 3.82 | – | – | – | – | – | 4.75 | – | –
C/C(=C\CC/C(C)=C/CC[C@@H]1[C@@]2(C)CCC(=O)C(C)(C)[C@H]2CC[C@@]1(C)O)CC/C=C(\C)C(=O)OCc1cn(-c2cccc(C(F)(F)F)c2)nn1 | < 3.82 | < 3.82 | < 3.82 | – | – | – | – | 4.87 | – | –
C/C(=C\CC/C(C)=C/CC[C@@H]1[C@@]2(C)CCC(=O)C(C)(C)[C@H]2CC[C@@]1(C)O)CC/C=C(\C)C(=O)OCc1cn(-c2ccc(C(C)(C)C)cc2)nn1 | < 3.82 | < 3.82 | – | 4.18 | – | – | – | 4.90 | < 3.82 | –
C/C(=C\CC/C(C)=C/CC[C@@H]1[C@@]2(C)CCC(=O)C(C)(C)[C@H]2CC[C@@]1(C)O)CC/C=C(\C)C(=O)OCc1cn(-c2ccccc2Cl)nn1 | < 3.82 | < 3.82 | < 3.82 | < 3.82 | – | 5.05 | 5.02 | 3.97 | – | –
C/C(=C\CC/C(C)=C/CC[C@@H]1[C@@]2(C)CCC(=O)C(C)(C)[C@H]2CC[C@@]1(C)O)CC/C=C(\C)C(=O)OCc1cn(-c2ccc(Cl)cc2)nn1 | < 3.82 | < 3.82 | – | < 3.82 | – | 4.18 | 5.04 | – | – | –
C/C(=C\CC/C(C)=C/CC[C@@H]1[C@@]2(C)CCC(=O)C(C)(C)[C@H]2CC[C@@]1(C)O)CC/C=C(\C)C(=O)OCc1cn(-c2ccc(F)cc2)nn1 | < 3.82 | < 3.82 | – | < 3.82 | – | – | – | – | < 3.82 | –
C/C(=C\CC/C(C)=C/CC[C@@H]1[C@@]2(C)CCC(=O)C(C)(C)[C@H]2CC[C@@]1(C)O)CC/C=C(\C)C(=O)OCc1cn(-c2ccccc2C(F)(F)F)nn1 | < 3.82 | < 3.82 | < 3.82 | < 3.82 | – | – | – | 4.84 | – | –
C/C(=C\CC/C(C)=C/CC[C@@H]1[C@@]2(C)CCC(=O)C(C)(C)[C@H]2CC[C@@]1(C)O)CC/C=C(\C)C(=O)OCc1cn(-c2ccccc2F)nn1 | < 3.82 | < 3.82 | < 3.82 | < 3.82 | – | – | – | – | – | –
C/C(=C\CC/C(C)=C/CC[C@@H]1[C@@]2(C)CCC(=O)C(C)(C)[C@H]2CC[C@@]1(C)O)CC/C=C(\C)C(=O)OCc1cn(-c2cccc(C)c2)nn1 | 3.86 | < 3.82 | – | < 3.82 | – | – | – | 4.87 | – | < 3.82
C/C(=C\CC/C(C)=C/CC[C@@H]1[C@@]2(C)CCC(=O)C(C)(C)[C@H]2CC[C@@]1(C)O)CC/C=C(\C)C(=O)OCc1cn(-c2cccc(Cl)c2)nn1 | 3.99 | 3.83 | 3.99 | 4.03 | – | – | – | 5.10 | 4.04 | 3.96
C[C@]12C=CC(=O)C=C1CC[C@@H]1[C@@H]2[C@@H](O)C[C@@]2(C)[C@H]1CC[C@]2(O)C(=O)CO [PREDNISOLONE] | – | – | – | – | – | 6.36 | 6.19 | – | – | –
COc1ccccc1-n1cc(COC(=O)/C(C)=C/CC/C(C)=C/CC/C(C)=C/CC[C@@H]2[C@@]3(C)CCC(=O)C(C)(C)[C@H]3CC[C@@]2(C)O)nn1 | < 3.82 | < 3.82 | < 3.82 | < 3.82 | – | 5.04 | 4.93 | – | – | –
C/C(=C\CC/C(C)=C/CC[C@@H]1[C@@]2(C)CCC(=O)C(C)(C)[C@H]2CC[C@@]1(C)O)CC/C=C(\C)C(=O)OCc1cn(-c2cccc(Br)c2)nn1 | < 3.82 | < 3.82 | – | < 3.82 | – | – | – | – | – | –
C/C(=C\CC/C(C)=C/CC[C@@H]1[C@@]2(C)CCC(=O)C(C)(C)[C@H]2CC[C@@]1(C)O)CC/C=C(\C)C(=O)OCc1cn(-c2ccc(C)cc2)nn1 | < 3.82 | < 3.82 | – | < 3.82 | – | – | – | – | – | –
C/C(=C\CC/C(C)=C/CC[C@@H]1[C@@]2(C)CCC(=O)C(C)(C)[C@H]2CC[C@@]1(C)O)CC/C=C(\C)C(=O)OCc1cn(-c2ccccc2)nn1 | 4.02 | < 3.82 | < 3.82 | < 3.82 | – | 5.01 | 5.03 | 4.36 | – | 3.83
C/C(=C\CC/C(C)=C/CC[C@@H]1[C@@]2(C)CCC(=O)C(C)(C)[C@H]2CC[C@@]1(C)O)CC/C=C(\C)C(=O)OCc1cn(-c2ccc(C(F)(F)F)cc2)nn1 | – | < 3.82 | < 3.82 | < 3.82 | – | – | – | – | – | –
C/C(=C\CC/C(C)=C/CC[C@@H]1[C@@]2(C)CCC(=O)C(C)(C)[C@H]2CC[C@@]1(C)O)CC/C=C(\C)C(=O)OCc1cn(-c2ccccc2Br)nn1 | < 3.82 | < 3.82 | < 3.82 | < 3.82 | – | – | – | – | – | –
C/C(=C\CC/C(C)=C/CC[C@@H]1[C@@]2(C)CCC(=O)C(C)(C)[C@H]2CC[C@@]1(C)O)CC/C=C(\C)C(=O)OCc1cn(-c2cccc(F)c2)nn1 | < 3.82 | 3.91 | 3.84 | – | – | – | – | 5.39 | < 3.82 | < 3.82
C/C(=C\CC/C(C)=C/CC[C@@H]1[C@@]2(C)CCC(=O)C(C)(C)[C@H]2CC[C@@]1(C)O)CC/C=C(\C)C(=O)OCc1cn(-c2ccc(Br)cc2)nn1 | < 3.82 | < 3.82 | – | < 3.82 | – | – | – | 4.95 | < 3.82 | –
C/C(=C\CC/C(C)=C/CC[C@@H]1[C@@]2(C)CCC(=O)C(C)(C)[C@H]2CC[C@@]1(C)O)CC/C=C(\C)C(=O)OCc1cn(C[C@@H]2O[C@H](n3ccc(=O)[nH]c3=O)[C@H]3OC(C)(C)O[C@H]32)nn1 | < 3.82 | 4.81 | < 3.82 | < 3.82 | – | 4.85 | 5.09 | – | – | –
C[C@H]1O[C@H](O[C@H]2[C@H](O)[C@@H](O)[C@@H](O[C@H]3[C@H](O)[C@@H](O)C(O)O[C@@H]3CO)O[C@@H]2CO)[C@H](O)[C@@H](O)[C@@H]1N[C@H]1C=C(CO)[C@@H](O)[C@H](O)[C@H]1O (stereo partly specified) [ACARBOSE] | – | – | – | – | – | – | – | 2.67 | – | –
C/C(=C\CC/C(C)=C/CC[C@@H]1[C@@]2(C)CCC(=O)C(C)(C)[C@H]2CC[C@@]1(C)O)CC/C=C(\C)C(=O)OCc1cn(-c2cccc([N+](=O)[O-])c2)nn1 | < 3.82 | < 3.82 | – | – | 4.61 | – | – | 5.56 | 3.87 | –
